Experimental data taken from patent US12617773B2, “Azetidin-3-ylmethanol derivatives as CCR6 receptor modulators” (Idorsia Pharmaceuticals Ltd, priority 2020, dated 2026).

Target: T1, human CCR6 (Homo sapiens, UniProt P51684)
T1 construct: expressed in transfected cells; host or cells: HEK-293
T1 sequence (P51684 1-374): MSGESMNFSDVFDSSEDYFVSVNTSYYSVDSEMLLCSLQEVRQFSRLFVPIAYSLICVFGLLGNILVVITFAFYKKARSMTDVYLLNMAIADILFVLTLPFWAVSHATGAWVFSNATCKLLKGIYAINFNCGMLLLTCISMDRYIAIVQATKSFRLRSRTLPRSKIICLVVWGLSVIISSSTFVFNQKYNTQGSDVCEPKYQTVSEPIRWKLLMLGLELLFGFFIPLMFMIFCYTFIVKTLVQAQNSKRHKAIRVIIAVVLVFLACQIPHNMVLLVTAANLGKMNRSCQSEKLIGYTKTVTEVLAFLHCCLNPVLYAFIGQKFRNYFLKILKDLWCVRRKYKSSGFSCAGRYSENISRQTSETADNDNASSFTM
Test: FLIPR assay (inhibition of CCL20-induced calcium signal)
Assay type: cell-based
Conditions: FLIPR IC50 (nM), HEK-293 cells expressing human CCR6; mean values where determined several times
How it was run: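 IC50 values come from baseline-corrected peak calcium fluorescence after agonist. The agonist was CCL20 at 10 nM final, added to engineered human CCR6 HEK-293 cells following a 30-min, room-temperature, dark preincubation with serially diluted compound. Readings were taken in a fluorometric imaging plate reader.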

| Compound | IC50 [nM] |
| --- | --- |
| CC(C)c1ccc([C@](O)(c2cncc(N3C4CCC3CC4)c2)C2(C)CN(C)C2)cc1 [Example 177] | 284 |

Same assay, conditions: HEK-293 cells expressing human CCR6; mean values where determined several times; read-out: FLIPR IC50

| IC50 [nM] | Compound |
| --- | --- |
| 20.1 | CC(C)c1ccc([C@](O)(c2cncc(-c3noc([C@@](C)(O)C(F)(F)F)n3)c2)C2(C)CN(C)C2)cc1 [Example 117] |
| 83.3 | CC(C)c1ccc([C@](O)(c2cncc(CCOCc3ccccc3)c2)C2(C)CN(C)C2)cc1 [Example 326, (R)-[5-(2-Benzyloxy-ethyl)-pyridin-3-yl]-(1,3-dimethyl-azetidin-3-yl)-(4-isopropyl-phenyl)-methanol] |
| 67 | CC(=O)N1CCC(C#Cc2cncc([C@@](O)(c3ccc(C(C)C)cc3)C3(C)CN(C)C3)c2)CC1 [Example 586] |
| 187 | CC(C)c1ccc([C@](O)(c2cncc(-c3nc(C4CCN(C(=O)C5COCCO5)CC4)no3)c2)C2(C)CN(C)C2)cc1 (stereo partly drawn) [Example 525, [4-(5-{5-[(R)-(1,3-Dimethyl-azetidin-3-yl)-hydroxy-(4-isopropyl-phenyl)-methyl]-pyridin-3-yl}-[1,2,4]oxadiazol-3-yl)-piperidin-1-yl]-[1,4]dioxan-2-yl-methanone] |
| 55.7 | CC(C)c1ccc([C@](O)(c2cncc(N3CCC(F)(F)C3)c2)C2(C)CN(C)C2)cc1 [Example 180] |
| 33.3 | CC(C)c1ccc(C(O)(c2cncc(OCCc3ccccn3)c2)C2(C)CN(C)C2)cc1 (stereo not drawn) [Example 246, (1,3-Dimethyl-azetidin-3-yl)-(4-isopropyl-phenyl)-[5-(2-pyridin-2-yl-ethoxy)-pyridin-3-yl]-methanol] |
| 36.5 | Cc1cnc(-c2cncc(C(O)(c3ccc(C(C)C)cc3)C3(C)CN(C)C3)c2)s1 (stereo not drawn) [Example 271, (1,3-Dimethyl-azetidin-3-yl)-(4-isopropyl-phenyl)-[5-(5-methyl-thiazol-2-yl)-pyridin-3-yl]-methanol] |
| 440 | CC(C)c1ccc([C@](O)(c2cncc(CCc3cnn(C)c3)c2)C2(C)CN(C)C2)cc1 [Example 58] |
| 169 | CC(C)c1ccc([C@](O)(c2cncc(CCC(C)(C)N3CCN(C)C3=O)c2)C2(C)CN(C)C2)cc1 [Example 640] |
| 45.7 | CC(=O)N1CCC(CC#Cc2cncc([C@@](O)(c3ccc(C(C)C)cc3)C3(C)CN(C)C3)c2)CC1 [Example 600] |
| 63.5 | CN1CC(C)(C(O)(c2ccc(OC(F)(F)F)cc2)c2ccc(Oc3ccccc3)nc2)C1 (stereo not drawn) [Example 147] |
| 48.5 | CC(C)c1ccc([C@](O)(c2cncc(N3C[C@@H](C)O[C@@H](C)C3)c2)C2(C)CN(C)C2)cc1 [Example 224] |
| 17.9 | COc1ccc(C(C)(O)CCc2cncc([C@@](O)(c3ccc(C(C)C)cc3)C3(C)CN(C)C3)c2)cc1 (stereo partly drawn) [Example 68] |
| 20.2 | COc1cc(C(C)(O)C#Cc2cncc([C@@](O)(c3ccc(C(C)C)cc3)C3(C)CN(C)C3)c2)nc(OC)n1 (single isomer, unassigned) [Example 628] |
| 1340 | CN1CC(C)([C@](O)(c2ccc(OC3CCC3)cc2)c2cncc(-c3noc(C(C)(C)O)n3)c2)C1 [Example 574] |
| 38.5 | CC(C)c1ccc([C@](O)(c2cncc(-c3noc(CC4(O)CCCCC4)n3)c2)C2(C)CN(C)C2)cc1 [Example 112] |
| 103 | CC(C)c1ccc([C@](O)(c2cncc(-c3nc(CC(C)(C)O)no3)c2)C2(C)CN(C)C2)cc1 [Example 102] |
| 42.2 | COCCc1nc(-c2cncc([C@@](O)(c3ccc(C(C)C)cc3)C3(C)CN(C)C3)c2)no1 [Example 104] |
| 33.6 | CC(C)c1ccc([C@](O)(c2cncc(-c3noc([C@H]4CC[C@H](O)CC4)n3)c2)C2(C)CN(C3CC3)C2)cc1 [Example 452] |

| IC50 [nM] | Compound |
| --- | --- |
| 46.2 | CC(C)c1ccc([C@](O)(c2cncc(-c3nc(C4(C)CCOCC4)no3)c2)C2(C)CN(C)C2)cc1 [Example 91] |
| 108 | CC(C)c1ccc([C@](O)(c2cncc(N3CC(c4cnn(C)c4)CC3=O)c2)C2(C)CN(C)C2)cc1 (stereo partly drawn) [Example 676] |
| 681 | [2H]C([2H])([2H])C(=O)NCCc1nc(-c2cncc([C@@](O)(c3ccc(C(C)C)cc3)C3(C)CN(C)C3)c2)no1 [Example 140, (R)—N-(2-(3-(5-((1,3-dimethylazetidin-3-yl)(hydroxy)(4-isopropylphenyl)methyl)pyridin-3-yl)-1,2,4-oxadiazol-5-yl)ethyl)acetamide-2,2,2-d3] |
| 20.9 | CC(C)c1ccc([C@](O)(c2cncc(-c3noc(-c4cccnc4)n3)c2)C2(C)CN(C)C2)cc1 [Example 495] |
| 1730 | CC(C)c1ccc([C@](O)(c2cncc(C3CCC(O)CC3)c2)C2(C)CN(C)C2)cc1 (stereo partly drawn) [Example 425, 4-{5-[(R)-(1,3-Dimethyl-azetidin-3-yl)-hydroxy-(4-isopropyl-phenyl)-methyl]-pyridin-3-yl}-cyclohexanol] |
| 235 | CC(=O)NC(C)(C)C#Cc1cncc([C@@](O)(c2ccc(C(C)C)cc2)C2(C)CN(C)C2)c1 [Example 621] |
| 33.9 | CC(C)c1ccc([C@](O)(c2cncc(C#CC3CCOCC3)c2)C2(C)CN(C)C2)cc1 [Example 30] |
| 44.5 | Cc1cncc([C@@](O)(c2ccc(C(C)C)cc2)C2(C)CN(C)C2)c1 [Example 302, (R)-(1,3-Dimethyl-azetidin-3-yl)-(4-isopropyl-phenyl)-(5-methyl-pyridin-3-yl)-methanol] |
| 227 | CC(C)c1ccc([C@](O)(c2cncc(N3CC(c4ccc(C(F)(F)F)nc4)CC3=O)c2)C2(C)CN(C)C2)cc1 (stereo partly drawn) [Example 675] |
| 19.1 | CC(C)c1ccc([C@](O)(c2cncc(CCc3cc4ccccc4[nH]3)c2)C2(C)CN(C)C2)cc1 [Example 81] |
| 40.4 | Cc1cccc(C(C)(O)C#Cc2cncc([C@@](O)(c3ccc(C(C)C)cc3)C3(C)CN(C(C)C)C3)c2)n1 (stereo partly drawn) [Example 665] |
| 97.2 | CC(=O)N1CCC(c2nc(-c3cncc([C@@](O)(c4ccc(C(C)C)cc4)C4(C)CN(C(C)C)C4)c3)no2)CC1 [Example 578, 1-[4-(3-{5-[(R)-Hydroxy-(1-isopropyl-3-methyl-azetidin-3-yl)-(4-isopropyl-phenyl)-methyl]-pyridin-3-yl}-[1,2,4]oxadiazol-5-yl)-piperidin-1-yl]-ethanone] |
| 40.6 | CC(C)c1ccc([C@](O)(c2cncc(C#CC3(c4ccccn4)CC3)c2)C2(C)CN(C)C2)cc1 [Example 634] |
| 15 | CC(C)c1ccc([C@](O)(c2cncc(COc3ccc(F)cc3)c2)C2(C)CN(C)C2)cc1 [Example 324, (R)-(1,3-Dimethyl-azetidin-3-yl)-[5-(4-fluoro-phenoxymethyl)-pyridin-3-yl]-(4-isopropyl-phenyl)-methanol] |
| 52 | CC(C)c1ccc([C@](O)(c2cncc(C#C[C@@H](C)O)c2)C2(C)CN(C)C2)cc1 [Example 16] |
| 89.9 | CCCc1ccc([C@](O)(c2cncc(-c3nc(COC4CCOCC4)no3)c2)C2(C)CN(C)C2)cc1 [Example 85] |
| 349 | CC(C)c1ccc([C@](O)(c2cncc(CCCCO)c2)C2(C)CN(C)C2)cc1 [Example 57] |
| 147 | Cc1nc(C(C)(O)CCc2cncc([C@@](O)(c3ccc(C(C)C)cc3)C3(C)CN(C)C3)c2)cs1 (stereo partly drawn) [Example 71] |
| 128 | CN1CC(C)([C@](O)(c2ccc(C3(C(F)(F)F)CC3)cc2)c2cncc(N3C[C@@H]4C[C@H]3CO4)c2)C1 [Example 241] |
